Results taken from US11007274B2, “Compounds for medicinal applications” (Ausvir Therapeutics Pty LTD, priority 2015, dated 2021).
Read-outs that look alike come from different tables or passages of the source. Marks after values point to notes of the source that are not given here.

What was measured:
[1] = system: Oseltamivir resistant strains; test: microbe, parasite or virus in culture; assay type: cell-based, influenza virus
influenza virus = assay type: cell-based

SMILES	IC50 ([1]; Influenza A virus, H3N2, read-out: IC50, inhibition of plaque number)	IC50, inhibition of plaque number ([1]; pH 1)	IC50 ([1]; unidentified influenza virus, pH 1, read-out: IC50, inhibition of plaque number)	IC50 ([1]; unidentified influenza virus, read-out: IC50, inhibition of plaque number)	EC50 (influenza virus)	EC50 (influenza virus; read-out: EC50)	IC50 ([1]; Influenza A virus, H3N2; read-out: IC50, inhibition of plaque number)	IC50 ([1]; pH 1; read-out: IC50, inhibition of plaque number)	IC50 ([1]; read-out: IC50, inhibition of plaque number)	IC50 ([1]; unidentified influenza virus, pH 1; read-out: IC50, inhibition of plaque number)	IC50 ([1]; unidentified influenza virus; read-out: IC50, inhibition of plaque number)
CC(=O)N[C@H]1[C@H]([C@H](OC(=O)NCCCCCCCCCNC(=O)c2cc(C(=O)NCCCCCCCCCNC(=O)O[C@@H]([C@@H]3OC(C(=O)O)=C[C@H](NC(=N)N)[C@H]3NC(C)=O)[C@H](O)CO)c(C(=O)N[C@H](CC(=O)NCS(=O)(=O)O)C(=O)NCS(=O)(=O)O)cc2C(=O)N[C@H](CC(=O)NCS(=O)(=O)O)C(=O)NCS(=O)(=O)O)[C@H](O)CO)OC(C(=O)O)=C[C@@H]1NC(=N)N [MD185, PK2PYR(Zn)2[(D-Asp)(NHCH2SO3)2]2]	1 ng/mL	1-100^b ng/ml	1 to 10 ng/mL	1 to 10 ng/mL	0.18/0.097 ng/ml	0.097 nM					
CCOC(=O)C1=C[C@@H](OC(CC)CC)[C@H](NC(C)=O)[C@@H](N)C1 [Oseltamivir, reference compound]							≥ 1000 nM	≥ 10000 nM	≥ 10000 nM	100 nM	1000 nM
